Data reported in patent US20210386668A1, “Cyclodextrin for use in the treatment and prevention of late phase bronchoconstriction in allergen-induced asthma” (Universite de Liege, priority 2020, published 2021).

System: healthy subjects
Assay: Phase 1 clinical trial, single and multiple HPBCD inhalation
Format: in vivo, human
Excerpt: Clinical trial protocols have been approved by an independent ethical committee (CHU Liege—University of Liege) in accordance with GCPs, Declaration of Helsinki and European regulations (EudraCT). All participants gave written informed consent before any study-specific procedure. For the phase 1 clinical trial, 8 healthy subjects (4 women and 4 men) from 18 to 40 years were recruited and enrolled in the study at the University Hospital of Liege (Belgium). Patients were randomized and received first the placebo (NaCl 0.9%) or HPBCD at 2.5 mM and 8 days after, the opposite treatment. After 1 week, all patients received HPBCD at 15 mM. One month later, all patients received HPBCD at 15 mM during 5 consecutive days. Apyrogenic and sterile HPBCD powder was diluted with NaCl 0.9% before inhalation (8 ml) with an ultrasonic nebulizer (Devilbiss 2000). General symptoms, asthma scores (ACQ), dyspnea, chest Rx, clinical biology, ECG, vital signs, spirometry, NO, sputum (induced by NaCl 4.5%) were analyzed after treatment periods. The second clinical trial (phase 2a-proof of concept) was a double-blinded, cross-over, placebo-controlled study. 17 mild to moderate asthmatic patients were included in the study at two different sites (University Hospital of Liege and University Hospital Erasme) in Belgium. Characterization visits consisted of dyspnea symptoms recording, ECG, chest Rx, clinical biology, spirometry and vital signs analysis. PD20 (provocative dose that causes a 20% fall in FEV1 from the saline alone value) to inhaled allergen was determined. […] The PD20 of the allergen was calculated from a cumulative dose-response curve, as described previously, Cataldo et al., Matrix metalloproteinase-9, but not tissue inhibitor of matrix metalloproteinase-1, increases in the sputum from allergic asthmatic patients after allergen challenge, Chest. 2002; 122(5):1553-9. All […] received a cumulative concentration of Dermatophagoides pteronyssinus with a reactivity index of 6. After 14 days wash-out period, patients were randomly divided into two groups and received either HPBCD 15 mM or Placebo (NaCl 0.9%) by inhalation (ultrasonic nebulizer (Devilbiss 2000)) twice daily. At the end of this treatment period, lung function (FEV1) was analyzed after allergen (HDM) challenge under the supervision of experienced respiratory clinical physiologists. FEV1 was measured after allergen inhalation challenge at 5, 15, 30, 60, 120, 180, 240, 300 and 360 min. After 28 days wash-out period, patients received the opposite treatment for another 14 days and the FEV1 following allergen challenge was evaluated. All clinical parameters were examined after each treatment period. The endpoint of this proof of concept study was changes in FEV1 over 0-360 min post-allergen challenges. FEV1 in early phase (0-60 min) and late phase (180-360 min) were expressed as: area under the FEV1-versus-time curve (AUC), maximum percentage fall and average percentage fall (calculated by dividing the area under the curve of the percentage fall in FEV1 by the duration of the response period). One patient who received placebo had negative maximum FEV1 decrease and negative average percentage fall in FEV1. These negative values were truncated to 0. Patients had access to […] (salbutamol 100 μg) throughout the study as an «as needed» treatment.
Data are presented as mean±SEM unless specified. The differences between mean values were estimated using a two-tailed Mann-Whitney test (animal and in vitro experiments) unless specified. All animal experiments were repeated at least 2 times; n 6 in each experimental group. ANOVA Friedman test (single dose) and Wilcoxon signed rank test (multiple doses) were used to analyze results obtained during the phase 1 clinical trial. One-tailed Wilcoxon matched pairs test was used to evaluate intra-individual differences in the proof of concept clinical trial. A P value less than 0.05 was considered significant. […]

[1] = multiple dose HPBCD 15 mM, after 5 days inhalation
[2] = multiple dose HPBCD 15 mM, after 5 days inhalation, mean ± SD
[3] = single dose, HPBCD 2.5 mM, mean ± SD
[4] = single dose, HPBCD 15 mM, mean ± SD

CC(O)COC[C@H]1O[C@@H]2O[C@H]3[C@H](O)[C@@H](O)[C@@H](O[C@H]4[C@H](O)[C@@H](O)[C@@H](O[C@H]5[C@H](O)[C@@H](O)[C@@H](O[C@H]6[C@H](O)[C@@H](O)[C@@H](O[C@H]7[C@H](O)[C@@H](O)[C@@H](O[C@H]8[C@H](O)[C@@H](O)[C@@H](O[C@H]1[C@H](O)[C@H]2O)O[C@@H]8COCC(C)O)O[C@@H]7COCC(C)O)O[C@@H]6COCC(C)O)O[C@@H]5COCC(C)O)O[C@@H]4COCC(C)O)O[C@@H]3COCC(C)O (stereo partly drawn) [HPBCD, 2-hydroxypropyl-beta-cyclodextrin]
Eosinophils (sputum) 5 h after inhalation [1]: 0.00% | QT [1]: 393.50 ms | QtTc [1]: 393.30 ms | FEV1 15 min after inhalation [2]: 4.13 ± 0.87 L | FEV1 1 h after inhalation [2]: 4.07 ± 0.82 L | FEV1 3 h after inhalation [2]: 4.11 ± 0.87 L | FEV1 5 h after inhalation [2]: 4.1 ± 0.87 L | No measurements (ppb) 15 min after inhalation [2]: 25.16 ± 9.76 ppb | Eosinophils (sputum) 5 h after inhalation [3]: 0.00 ± 0.00% | FEV1 15 min after inhalation [3]: 4.08 ± 0.87 L | FEV1 1 h after inhalation [3]: 4.11 ± 0.83 L | FEV1 3 h after inhalation [3]: 4.1 ± 0.82 L | FEV1 5 h after inhalation [3]: 4.11 ± 0.87 L | No measurements (ppb) 15 min after inhalation (single dose, HPBCD 2.5 mM, mean ± SD, n = 8): 23.85 ± 7.56 ppb | Eosinophils (sputum) 5 h after inhalation [4]: 0.20 ± 0.49% | FEV1 15 min after inhalation [4]: 4.01 ± 0.87 L | FEV1 1 h after inhalation [4]: 4.04 ± 0.86 L | FEV1 3 h after inhalation [4]: 4.07 ± 0.85 L | FEV1 5 h after inhalation [4]: 4.08 ± 0.92 L | No measurements (ppb) 15 min after inhalation (single dose, HPBCD 15 mM, mean ± SD, n = 8): 28.48 ± 17.92 ppb
